Test results: patent publication US6737383B1, “Herbicidal oxadiazolidines” (priority 1999, dated 2004)

Key:
rice = test: Test B flood test rice; type: in vivo, Oryza sativa
Outline: (§1)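 Read-out is a visual response score from 0 (no effect) to 10 (complete control), assigned by comparison with untreated controls. Treatment was applied at the 2-leaf stage, and plants stayed in the greenhouse for twelve to sixteen days before scoring.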

morningglory = test: Test B pre/postemergence morningglory; type: in vivo, Ipomoea hederacea
Outline: (§2)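 Herbicidal effect was estimated by eye on a ten-point control scale after plants spent twelve to sixteen days in a greenhouse following soil or foliar treatment. Foliar sprays targeted plants at one to four leaves; all doses were formulated in a non-phytotoxic solvent with surfactant.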

bedstraw = test: Test B pre/postemergence bedstraw; type: in vivo, Galium aparine; details: Preemergence
Outline: as §2

smallflower flatsedge = test: Test B flood test smallflower flatsedge; type: in vivo, Cyperus difformis
Outline: as §1

crabgrass = test: Test B pre/postemergence crabgrass; type: in vivo, Digitaria sanguinalis
Outline: as §2

rape = test: Test B pre/postemergence rape; type: in vivo, Brassica napus
Outline: as §2

duck salad = test: Test B flood test duck salad; type: in vivo, Heteranthera limosa
Outline: as §1

cocklebur = test: Test B pre/postemergence cocklebur; type: in vivo, Xanthium strumarium
Outline: as §2

pigweed = test: Test B pre/postemergence pigweed; type: in vivo, Amaranthus retroflexus
Outline: as §2

bamyardgrass = test: Test B flood test barnyardgrass; type: in vivo, Echinochloa crus-galli
Outline: as §1

wild oat = test: Test B pre/postemergence wild oat; type: in vivo, Avena fatua
Outline: as §2

corn = test: Test B pre/postemergence corn; type: in vivo, Zea mays
Outline: as §2

surinam grass = test: Test B pre/postemergence surinam grass; type: in vivo, Brachiaria decumbens
Outline: as §2

velvetleaf = test: Test B pre/postemergence velvetleaf; type: in vivo, Abutilon theophrasti
Outline: as §2

soybean = test: Test B pre/postemergence soybean; type: in vivo, Glycine max
Outline: as §2

sugar beet = test: Test B pre/postemergence sugar beet; type: in vivo, Beta vulgaris
Outline: as §2

[1] = Postemergence (flood test species), Rate 125 g/ha, scale of 0 to 10 where 0 is no effect and 10 is complete control
[2] = Rate 62 g/ha, Postemergence section, flood test species, scale of 0 to 10 where 0 is no effect and 10 is complete control
[3] = Rate 250 g/ha, Postemergence (flood test), scale 0 to 10, 0 is no effect, 10 is complete control
[4] = Rate 250 g/ha, headed Pre-emergence (flood test species), scale 0 to 10 (0 no effect, 10 complete control)
[5] = Rate 500 g/ha, headed Pre-emergence (flood test species), scale 0 to 10 (0 no effect, 10 complete control)
[6] = Rate 500 g/ha, listed under Postemergence (flood test species), scale 0 to 10, 0 no effect, 10 complete control
[7] = Rate 1000 g/ha, Pre-emergence (as headed), scale 0 to 10
[8] = Rate 2000 g/ha, Pre-emergence (as headed), scale 0 to 10
[9] = Postemergence, Rate 125 g/ha, scale of 0 to 10 where 0 is no effect and 10 is complete control
[10] = Preemergence, Rate 62 g/ha, scale 0 to 10 (0 no effect, 10 complete control)
[11] = Preemergence, Rate 125 g/ha, 0 is no effect, 10 is complete control
[12] = Preemergence, Rate 250 g/ha, scale 0 to 10, 0 is no effect, 10 is complete control
[13] = Preemergence, Rate 500 g/ha, scale 0 to 10 (0 no effect, 10 complete control)
[14] = Rate 62 g/ha, Postemergence, scale of 0 to 10 where 0 is no effect and 10 is complete control
[15] = Rate 250 g/ha, Postemergence, scale 0 to 10, 0 is no effect, 10 is complete control
[16] = Rate 500 g/ha, Postemergence, scale 0 to 10, 0 no effect, 10 complete control
[17] = Postemergence, Rate 62 g/ha, scale 0 to 10, 0 is no effect, 10 is complete control

CC(C)N(C(=O)n1oc(=O)n(-c2cnn(C)c2)c1=O)c1ccccc1 [Compound 123]
Rice plant response rating (rice; [1]): 0 | Rice plant response rating (rice; [2]): 0 | Plant response rating, Rice (rice; [3]): 0 | Rice plant response rating (rice; [4]): 0 | Plant response rating, Rice (rice; [5]): 0 | Rice plant response rating (rice; [6]): 0 | Rice plant response rating (rice; [7]): 0 | Rice plant response rating (rice; [8]): 0 | Morningglory plant response rating (morningglory; [9]): 9 | Morningglory plant response rating (morningglory; [10]): 0 | Morningglory plant response rating (0 to 10 scale) (morningglory; [11]): 0 | Morningglory plant response rating (morningglory; [12]): 0 | Morningglory plant response rating (morningglory; [13]): 0 | Morningglory plant response rating (morningglory; [14]): 8 | Plant response rating, Morningglory (morningglory; [15]): 10 | Morningglory plant response rating (morningglory; [16]): 10 | Bedstraw plant response rating (bedstraw; Rate 62 g/ha, scale 0 to 10 (0 no effect, 10 complete control)): 0 | Bedstraw plant response rating (0 to 10 scale) (bedstraw; Rate 125 g/ha, 0 is no effect, 10 is complete control): 0 | Bedstraw plant response rating (bedstraw; Rate 250 g/ha, scale 0 to 10, 0 is no effect, 10 is complete control): 0 | Bedstraw plant response rating (bedstraw; Rate 500 g/ha, scale 0 to 10 (0 no effect, 10 complete control)): 0 | S. Flatsedge plant response rating (smallflower flatsedge; [1]): 0 | S. Flatsedge plant response rating (smallflower flatsedge; Pre-emergence, Rate 1000 g/ha, scale 0 to 10 (0 no effect, 10 complete control)): 0 | S. Flatsedge plant response rating (smallflower flatsedge; [2]): 0 | Plant response rating, S. Flatsedge (smallflower flatsedge; [3]): 0 | S. Flatsedge plant response rating (smallflower flatsedge; [4]): 0 | Plant response rating, S. Flatsedge (smallflower flatsedge; [5]): 0 | S. Flatsedge plant response rating (smallflower flatsedge; [6]): 0 | S. Flatsedge plant response rating (smallflower flatsedge; [8]): 0 | Crabgrass plant response rating (crabgrass; [9]): 4 | Crabgrass plant response rating (crabgrass; [10]): 4 | Crabgrass plant response rating (0 to 10 scale) (crabgrass; [11]): 5 | Crabgrass plant response rating (crabgrass; [12]): 5 | Crabgrass plant response rating (crabgrass; [13]): 7 | Crabgrass plant response rating (crabgrass; [14]): 0 | Plant response rating, Crabgrass (crabgrass; [15]): 8 | Crabgrass plant response rating (crabgrass; [16]): 9 | Rape plant response rating (rape; [9]): 0 | Rape plant response rating (rape; [10]): 0 | Rape plant response rating (0 to 10 scale) (rape; [11]): 0 | Rape plant response rating (rape; [12]): 0 | Rape plant response rating (rape; [13]): 0 | Rape plant response rating (rape; [14]): 0 | Plant response rating, Rape (rape; [15]): 0 | Rape plant response rating (rape; [16]): 2 | Ducksalad plant response rating (duck salad; [1]): 0 | Ducksalad plant response rating (duck salad; [2]): 0 | Plant response rating, Ducksalad (duck salad; [3]): 0 | Ducksalad plant response rating (duck salad; [4]): 0 | Plant response rating, Ducksalad (duck salad; [5]): 0 | Ducksalad plant response rating (duck salad; [6]): 0 | Ducksalad plant response rating (duck salad; [7]): 0 | Ducksalad plant response rating (duck salad; [8]): 0 | Cocklebur plant response rating (cocklebur; [9]): 0 | Cocklebur plant response rating (cocklebur; [10]): 0 | Cocklebur plant response rating (0 to 10 scale) (cocklebur; [11]): 0 | Cocklebur plant response rating (cocklebur; [12]): 0 | Cocklebur plant response rating (cocklebur; [13]): 0 | Cocklebur plant response rating (cocklebur; [14]): 0 | Plant response rating, Cocklebur (cocklebur; [15]): 0 | Cocklebur plant response rating (cocklebur; [16]): 1 | Redroot pigweed plant response rating (pigweed; [10]): 0 | Redroot pigweed plant response rating (0 to 10 scale) (pigweed; [11]): 4 | Redroot pigweed plant response rating (pigweed; [12]): 5 | Redroot pigweed plant response rating (pigweed; [13]): 9 | Redroot pigweed plant response rating (pigweed; [14]): 0 | Plant response rating, Redroot pigweed (pigweed; [15]): 2 | Redroot pigweed plant response rating (pigweed; [16]): 2 | Barnyardgrass plant response rating (bamyardgrass; [1]): 0 | Barnyardgrass plant response rating (bamyardgrass; [17]): 0 | Plant response rating, Barnyardgrass (bamyardgrass; [3]): 0 | Barnyardgrass plant response rating (bamyardgrass; [4]): 0 | Plant response rating, Barnyardgrass (bamyardgrass; [5]): 0 | Barnyardgrass plant response rating (bamyardgrass; [6]): 0 | Barnyardgrass plant response rating (bamyardgrass; [7]): 0 | Barnyardgrass plant response rating (bamyardgrass; Rate 2000 g/ha, Pre-emergence (as headed), scale 0 to 10, 0 no effect, 10 complete control): 0 | Wild oats plant response rating (wild oat; [9]): 0 | Wild oats plant response rating (wild oat; [10]): 0 | Wild oats plant response rating (0 to 10 scale) (wild oat; [11]): 2 | Wild oats plant response rating (wild oat; [12]): 6 | Wild oats plant response rating (wild oat; [13]): 6 | Wild oats plant response rating (wild oat; [14]): 0 | Plant response rating, Wild oats (wild oat; [15]): 0 | Wild oats plant response rating (wild oat; [16]): 2 | Corn plant response rating (corn; [9]): 0 | Corn plant response rating (corn; [10]): 0 | Corn plant response rating (0 to 10 scale) (corn; [11]): 0 | Corn plant response rating (corn; [12]): 0 | Corn plant response rating (corn; [13]): 0 | Corn plant response rating (corn; [14]): 0 | Plant response rating, Corn (corn; [15]): 0 | Corn plant response rating (corn; [16]): 0 | B. signalgrass plant response rating (surinam grass; [17]): 0 | B. signalgrass plant response rating (surinam grass; [9]): 0 | B. signalgrass plant response rating (surinam grass; [10]): 0 | B. signalgrass plant response rating (0 to 10 scale) (surinam grass; [11]): 0 | B. signalgrass plant response rating (surinam grass; [12]): 0 | B. signalgrass plant response rating (surinam grass; [13]): 2 | Plant response rating, B. signalgrass (surinam grass; [15]): 3 | B. signalgrass plant response rating (surinam grass; Rate 500 g/ha, Postemergence, scale of 0 to 10 where 0 is no effect and 10 is complete control): 5 | Velvetleaf plant response rating (velvetleaf; [9]): 0 | Velvetleaf plant response rating (velvetleaf; [10]): 0 | Velvetleaf plant response rating (0 to 10 scale) (velvetleaf; [11]): 0 | Velvetleaf plant response rating (velvetleaf; [12]): 3 | Velvetleaf plant response rating (velvetleaf; [13]): 6 | Velvetleaf plant response rating (velvetleaf; [14]): 0 | Plant response rating, Velvetleaf (velvetleaf; [15]): 0 | Soybean plant response rating (soybean; [9]): 4 | Soybean plant response rating (soybean; [10]): 0 | Soybean plant response rating (0 to 10 scale) (soybean; [11]): 0 | Soybean plant response rating (soybean; [12]): 0 | Soybean plant response rating (soybean; [13]): 0 | Soybean plant response rating (soybean; [14]): 2 | Plant response rating, Soybean (soybean; [15]): 4 | Soybean plant response rating (soybean; [16]): 4 | Sugarbeets plant response rating (sugar beet; [9]): 0 | Sugarbeets plant response rating (sugar beet; [10]): 0 | Sugarbeets plant response rating (0 to 10 scale) (sugar beet; [11]): 3 | Sugarbeets plant response rating (sugar beet; [12]): 5 | Sugarbeets plant response rating (sugar beet; [13]): 7 | Sugarbeets plant response rating (sugar beet; [14]): 0 | Plant response rating, Sugarbeets (sugar beet; [15]): 1 | Sugarbeets plant response rating (sugar beet; [16]): 2
